According to patent US11497761B2, “Compositions for the treatment of metastatic cancer” (priority 2019, dated 2022):

Tested on: iCTCs from prostate cancer patients
Test: iCTC drug response (CDR) testing ex vivo, Project 1 Study-Prostate Cancer
Assay type: cell-based, human
Details: for number of live iCTCs remaining after treatment: 72 hours
Experimental: Materials for Project 1 Study-Prostate Cancer • Blood collection tubes: BD Vacutainer® 10 mL sodium heparin tube (BD catalog #367874)). • Vita-Assay™ AN6W plate. • Blood: prostate cancer, up to 40-mL blood was collected from patients and provided by Conversant bio. • Stock Solution and Dilutions • Monolaurin, 4.78 mM with 0.75% PS-80 (Stock Solution C), 13.1 mg monolaurin in 0.25 mL PS-80 and 0.75 mL water and 0.1 mL of this solution was diluted with 0.9 mL of RPMI. Stock solutions were stable for 2 weeks at 4 degrees C. Monolaurin used is an equal mixture of 1-, 2-, and 3-isomers of monolaurin. • Dilution: Monolaurin: Add 209.2 uL, 627.6 uL, and 1.2552 mL of CPI-2400 in 0.75% PS-80 (Stock solution C) and dilute to 10 mL of media to achieve final concentrations of 100 uM, 200 uM, and 300 uM final concentrations of drug cell exposure respectively.
With respect to FIG. 1, a depiction of a generalized experimental scheme for testing efficacy of a composition in accordance with an exemplary embodiment of the present invention against iCTC from the blood of prostate cancer patients is shown. Invasive circulating tumor cells (iCTCs) were obtained from venous blood of the individual with advanced prostate cancer, cultured and exposed to a specific drug or battery of drugs at 1×, 2×, and 3× concentrations in vitro for 3 days. Drug responsiveness was measured by automatic flow cytometry using the reduction of live iCTCs in the treated samples from the number of live iCTCs in the untreated controls. The greater the reduction of iCTCs of a given drug at a given dose indicates greater responsiveness to that dose of the drug. Four AN6W plates were used for each sample. Control and drug at each dose in triplicate were incubated for 72 hours. The iCTCs were measured by flow cytometry and viewed by microscopy as described. The complete culture medium contains 10% fetal bovine serum.
The complete experimental procedure for The Project 1 Study-Prostate Cancer followed the same procedure as that used with respect to The Project 1 Study-Pancreatic Cancer. With reference to FIGS. 5 and 6, flow cytometry evaluation: Count tumor cells and immune cells by using a 4-channel (FITC, PE, APC, and 7AAD) flow cytometer. iCTC is defined as: EPI^+TP^+CD45^−[…] • FIG. 5 depicts images of solitary and clustered iCTCs with specific markers in a cytospin preparation of the RP-19 sample. […] Pink arrows indicated iCTC clusters. A tumor cell was positively stained with green fluorescence-epithelial marker (GF-Epi), blue fluorescence nucleic acid dye (BF-Hoechst) and red fluorescence tumor progenitor (TP) marker (RF-TP). White arrows indicate WBCs that were not stained by Epi and TP tumor markers. Bar=40 μm. Cells from RP-19 were cultured for 3 days before staining.

CCCCCCCCCCCC(=O)OCC(O)CO (stereo not shown) [Monolaurin, glycerol monolaurate]
kill rates of iCTCs (summary) (iCTCs from prostate cancer patients): high kill rates | number of live iCTCs remaining after treatment (patient RP02 (Taxotere), iCTC control 450, 100 uM monolaurin): 0 | number of live iCTCs remaining after treatment (patient RP02 (Taxotere), iCTC control 450, 200 uM monolaurin): 0 | number of live iCTCs remaining after treatment (patient RP02 (Taxotere), iCTC control 450, 300 uM monolaurin): 0 | number of live iCTCs remaining after treatment (patient RP06 (Taxotere), iCTC control 40, 100 uM monolaurin): 10 | number of live iCTCs remaining after treatment (patient RP06 (Taxotere), iCTC control 40, 200 uM monolaurin): 0 | number of live iCTCs remaining after treatment (patient RP06 (Taxotere), iCTC control 40, 300 uM monolaurin): 0 | number of live iCTCs remaining after treatment (patient RP07 (Taxotere), iCTC control 200, 100 uM monolaurin): 0 | number of live iCTCs remaining after treatment (patient RP07 (Taxotere), iCTC control 200, 200 uM monolaurin): 0 | number of live iCTCs remaining after treatment (patient RP07 (Taxotere), iCTC control 200, 300 uM monolaurin): 0 | number of live iCTCs remaining after treatment (patient RP08 (Taxotere), iCTC control 60, 100 uM monolaurin): 0 | number of live iCTCs remaining after treatment (patient RP08 (Taxotere), iCTC control 60, 200 uM monolaurin): 0 | number of live iCTCs remaining after treatment (patient RP08 (Taxotere), iCTC control 60, 300 uM monolaurin): 0 | number of live iCTCs remaining after treatment (patient RP09 (Taxotere), iCTC control 225, 100 uM monolaurin): 0 | number of live iCTCs remaining after treatment (patient RP09 (Taxotere), iCTC control 225, 200 uM monolaurin): 0 | number of live iCTCs remaining after treatment (patient RP09 (Taxotere), iCTC control 225, 300 uM monolaurin): 0 | number of live iCTCs remaining after treatment (patient RP13 (Taxotere), iCTC control 75, 100 uM monolaurin): 0 | number of live iCTCs remaining after treatment (patient RP13 (Taxotere), iCTC control 75, 200 uM monolaurin): 0 | number of live iCTCs remaining after treatment (patient RP13 (Taxotere), iCTC control 75, 300 uM monolaurin): 0 | number of live iCTCs remaining after treatment (patient RP15 (Taxotere), iCTC control 50, 100 uM monolaurin): 20 | number of live iCTCs remaining after treatment (patient RP15 (Taxotere), iCTC control 50, 200 uM monolaurin): 10 | number of live iCTCs remaining after treatment (patient RP15 (Taxotere), iCTC control 50, 300 uM monolaurin): 0 | number of live iCTCs remaining after treatment (patient RP19 (Taxotere), iCTC control 425, 100 uM monolaurin): 50 | number of live iCTCs remaining after treatment (patient RP19 (Taxotere), iCTC control 425, 200 uM monolaurin): 50 | number of live iCTCs remaining after treatment (patient RP19 (Taxotere), iCTC control 425, 300 uM monolaurin): 0 | number of live iCTCs remaining after treatment (patient RP20 (Taxotere), iCTC control 50, 100 uM monolaurin): 20 | number of live iCTCs remaining after treatment (patient RP20 (Taxotere), iCTC control 50, 200 uM monolaurin): 10 | number of live iCTCs remaining after treatment (patient RP20 (Taxotere), iCTC control 50, 300 uM monolaurin): 5 | number of live iCTCs remaining after treatment (patient RP212 (Taxotere), iCTC control 55, 100 uM monolaurin): 30 | number of live iCTCs remaining after treatment (patient RP212 (Taxotere), iCTC control 55, 200 uM monolaurin): 10 | number of live iCTCs remaining after treatment (patient RP212 (Taxotere), iCTC control 55, 300 uM monolaurin): 10 | number of live iCTCs remaining after treatment (patient Rp05 (Taxotere), iCTC control 20, 100 uM monolaurin): 15 | number of live iCTCs remaining after treatment (patient Rp05 (Taxotere), iCTC control 20, 200 uM monolaurin): 0 | number of live iCTCs remaining after treatment (patient Rp05 (Taxotere), iCTC control 20, 300 uM monolaurin): 0
